Source: paper PMC6882824, “Engineering of chimeric peptides as antagonists for the G protein-coupled receptor, RXFP4” (Scientific Reports, 2019)
Where two headings read alike, the source gives them in different places. Bridge positions count the residues as written; N and C are the ends. Peptide text beside a SMILES is read from it. I, II: the chains in the order shown.

Assays:
RXFP4 [1] = biological target: T1, RXFP4 (Homo sapiens, UniProt Q8TDU9); assay: Competition binding in CHO-K1-RXFP4 cells (Eu-DTPA-mINSL5); design: expressed in transfected cells; host or cells: CHO-K1 (ATCC), stably transfected; conditions: CHO-K1 cells stably transfected with RXFP4, competition with 5 nM Eu-DTPA-mINSL5
Method: (§1) Chinese hamster ovary CHO-K1 cells (sourced from American Type Culture Collection (ATCC), Maryland, USA) stably transfected with RXFP3[33] or RXFP4[9] were plated out onto precoated poly-L-lysine 96-well view plates at a density of 50 000 cells per well. Medium was aspirated off and the cells were washed with phosphate-buffered saline (PBS) before competition binding assays were performed with 5 nM Eu-H3B1–22R[34] (RXFP3 ligand) or 5 nM Eu-DTPA-mINSL5[9] (RXFP4 ligand) as previously described. Competition binding curves were performed in triplicate and each experiment was performed independently at least three times. Fluorescent measurements were carried out on a BMG POLARstar plate reader (BMG Labtech, Melbourne, Australia. Pooled data are presented as mean ± S.E of specific binding and are fitted using one-site binding curve in GraphPad Prism version 8 (GraphPad Inc., San Diego, USA). Statistical analyses were conducted using one-way analysis of variance with uncorrected Fisher’s least significant difference (LSD) post-hoc analysis in GraphPad Prism version 8.

RXFP3 [2] = biological target: T2, RXFP3 (Homo sapiens, UniProt Q9NSD7); assay: cAMP agonist assay (inhibition of forskolin-induced cAMP, pCRE β-galactosidase reporter) in CHO-K1-RXFP3 cells; assay type: cell-based; conditions: SEM; read-out: RXFP3 Activity pEC50 (converted)
T2 construct: expressed in transfected cells; host or cells: CHO-K1 (ATCC), stably transfected
T2 sequence (Q9NSD7 1-469): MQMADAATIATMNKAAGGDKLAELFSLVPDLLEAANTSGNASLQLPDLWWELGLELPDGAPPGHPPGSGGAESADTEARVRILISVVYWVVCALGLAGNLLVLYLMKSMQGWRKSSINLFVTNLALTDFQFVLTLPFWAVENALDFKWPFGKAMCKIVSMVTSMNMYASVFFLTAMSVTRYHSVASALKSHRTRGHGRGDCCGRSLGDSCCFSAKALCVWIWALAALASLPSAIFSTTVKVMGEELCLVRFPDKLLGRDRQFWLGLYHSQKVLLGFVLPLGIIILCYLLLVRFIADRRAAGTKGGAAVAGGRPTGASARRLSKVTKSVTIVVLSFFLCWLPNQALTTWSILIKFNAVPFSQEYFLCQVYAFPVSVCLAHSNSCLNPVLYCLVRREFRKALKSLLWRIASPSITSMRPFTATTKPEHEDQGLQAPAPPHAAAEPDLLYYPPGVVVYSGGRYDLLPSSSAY
Method: (§2) The peptides were tested for their ability to inhibit forskolin induced cAMP activity in CHO-K1-RXFP3 or CHO-K1-RXFP4 cells transfected with a pCRE (cAMP Response Element) β-galactosidase reporter plasmid as previously described[9],[34]. For agonist assays cells were stimulated with forskolin (5 µM for RXFP3, 1 µM for RXFP4) plus or minus increasing concentrations of each peptide for 6 hours. For antagonist assays cells were stimulated with forskolin as in agonist assays plus increasing concentrations of each peptide for 10 minutes followed by stimulation with agonist at an ~EC80 concentration for a further 6 hours (10 nM Analogue 2 for RXFP3 and 16.6 nM Analogue 13 for RXFP4). Each peptide was tested in triplicate and each experiment was performed independently at least three times. Agonist data was expressed as the % Forskolin activity whereby 100% was defined as Forskolin alone and 0% as maximum agonist stimulation (1 µM Analogue 2 for RXFP3 and 1 µM Analogue 13 for RXFP4). […] Data were analysed and plotted using GraphPad PRISM 8 and are expressed as the mean ± SEM of the pooled data. Statistical analysis was conducted using one-way ANOVA with Uncorrected Fisher’s LSD post-hoc analysis in GraphPad Prism version 8.

RXFP4 [3] = biological target: T1, RXFP4; assay: cAMP agonist assay (inhibition of forskolin-induced cAMP, pCRE β-galactosidase reporter) in CHO-K1-RXFP4 cells; assay type: cell-based; design: expressed in transfected cells; host or cells: CHO-K1 (ATCC), stably transfected; conditions: for RXFP4 Activity pEC50: CHO-K1-RXFP4 cells, inhibition of 1 µM forskolin-induced cAMP, 6 hours, mean ± SEM, n in cell
Method: as §2

RXFP3 [4] = biological target: T2, RXFP3; assay: Competition binding in CHO-K1-RXFP3 cells (Eu-H3B1-22R); conditions: CHO-K1 cells stably transfected with RXFP3, competition with 5 nM Eu-H3B1-22R
Method: as §1

RXFP3 [5] = biological target: T2, RXFP3; assay: cAMP antagonist assay against 10 nM analogue 2 in CHO-K1-RXFP3 cells; assay type: cell-based; conditions: SEM; read-out: RXFP3 Emax (antagonist efficacy)
Method: as §2

RXFP4 [6] = biological target: T1, RXFP4; assay: cAMP antagonist assay against 16.6 nM analogue 13 in CHO-K1-RXFP4 cells; assay type: cell-based; design: expressed in transfected cells; host or cells: CHO-K1 (ATCC), stably transfected; conditions: SEM; read-out: RXFP4 Emax (antagonist efficacy)
Method: as §2

T1 sequence (Q8TDU9 whole entry): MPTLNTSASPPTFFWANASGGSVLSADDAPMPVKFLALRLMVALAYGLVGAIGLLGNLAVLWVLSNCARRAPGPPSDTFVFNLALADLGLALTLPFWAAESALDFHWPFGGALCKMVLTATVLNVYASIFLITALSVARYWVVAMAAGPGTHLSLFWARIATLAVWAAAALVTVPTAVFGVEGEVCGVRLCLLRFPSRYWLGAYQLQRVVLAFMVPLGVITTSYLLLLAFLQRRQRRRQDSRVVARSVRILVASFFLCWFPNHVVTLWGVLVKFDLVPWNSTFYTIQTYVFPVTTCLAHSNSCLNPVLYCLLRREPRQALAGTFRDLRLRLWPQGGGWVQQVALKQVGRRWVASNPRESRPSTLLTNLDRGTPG

Q: CC[C@H](C)[C@@H]1NC(=O)[C@H](Cc2ccccc2)NC(=O)[C@H](CCC(=O)O)NC(=O)[C@H](CCCNC(=N)N)NC(=O)CNC(=O)[C@@H](NC(=O)[C@H](CC(C)C)NC(=O)[C@H](CCCNC(=N)N)NC(=O)[C@@H](NC(=O)CNC(=O)[C@H](Cc2ccc(O)cc2)NC(=O)[C@@H]2CCCN2C(=O)[C@H](C)NC(=O)[C@H](C)NC(=O)[C@@H](N)CCCNC(=N)N)C(C)C)CSSC[C@H](N)C(=O)N[C@@H](CCCCN)C(=O)N[C@@H](Cc2c[nH]c3ccccc23)C(=O)NCC(=O)N[C@@H](CO)C(=O)N[C@@H](C)C(=O)N[C@@H](CCCCN)C(=O)N[C@@H](CO)C(=O)N[C@@H](CCC(=O)O)C(=O)N[C@@H]([C@@H](C)CC)C(=O)N[C@@H](CO)C(=O)N[C@@H](CO)C(=O)N[C@@H](CC(C)C)C(=O)N[C@H](C(=O)O)CSSC[C@@H](C(=O)NCC(=O)NCC(=O)N[C@@H](CO)C(=O)N[C@@H](CCCNC(=N)N)C(=O)N[C@@H](Cc2c[nH]c3ccccc23)C(=O)O)NC(=O)[C@H]([C@@H](C)O)NC(=O)[C@H](Cc2ccccc2)NC(=O)[C@H]([C@@H](C)CC)NC(=O)[C@H](C(C)C)NC(=O)[C@H](C)NC(=O)[C@H](CCCNC(=N)N)NC1=O [Analogue 2, reference compound] was tested. Which Ki (RXFP4 [1]; read-out: RXFP4 Binding Ki) did it give?
A: 0.0794 µM

Q: What about the EC50 (RXFP3 [2]) of the same compound?
A: 0.00372 µM

Q: And the EC50 (RXFP4 [3])?
A: 0.0199 µM

Q: And the Ki (RXFP3 [4]; read-out: RXFP3 Binding Ki)?
A: 0.0191 µM

Q: Which Emax (RXFP3 [5]) does the source give for CC[C@H](C)[C@@H]1NC(=O)[C@H](Cc2ccccc2)NC(=O)[C@H](CCC(=O)O)NC(=O)[C@H](CCCNC(=N)N)NC(=O)CNC(=O)[C@@H](NC(=O)[C@H](CC(C)C)NC(=O)[C@H](CCCNC(=N)N)NC(=O)[C@@H](NC(=O)CNC(=O)[C@H](Cc2ccc(O)cc2)NC(=O)[C@@H]2CCCN2C(=O)[C@H](C)NC(=O)[C@H](C)NC(=O)[C@@H](N)CCCNC(=N)N)C(C)C)CSSC[C@H](N)C(=O)N[C@@H]([C@@H](C)O)C(=O)N[C@@H](CC(=O)O)C(=O)NCC(=O)N[C@@H](C)C(=O)N[C@@H](CO)C(=O)N[C@@H](CCSC)C(=O)N[C@@H](CCCCN)C(=O)N[C@@H](CC(=O)O)C(=O)N[C@@H](CC(C)C)C(=O)N[C@@H](CO)C(=O)N[C@@H](C)C(=O)N[C@@H](CC(C)C)C(=O)N[C@H](C(=O)O)CSSC[C@@H](C(=O)N[C@@H](CCCNC(=N)N)C(=O)O)NC(=O)[C@H]([C@@H](C)CC)NC(=O)[C@H](Cc2ccccc2)NC(=O)[C@H]([C@@H](C)CC)NC(=O)[C@H](C(C)C)NC(=O)[C@H](C)NC(=O)[C@H](CCCNC(=N)N)NC1=O [Analogue 16] (I: H-RAAPYGVRLCGREFIRAVIFICR-OH / II: H-CTDGASMKDLSALC-OH; disulfide I:10-II:1, I:22-II:14; N-terminus assumed) here?
A: 55.8 ± 3.4%

Q: What about the Emax (RXFP4 [6]) of the same compound?
A: 2.1 ± 4.7%

Q: And the “RXFP4 Activity pEC50” value (RXFP4 [3])?
A: Weak partial agonist (4)

Q: With CC[C@H](C)[C@@H]1NC(=O)[C@H](Cc2ccccc2)NC(=O)[C@H]([C@@H](C)CC)NC(=O)[C@H](C(C)C)NC(=O)[C@H]([C@@H](C)O)NC(=O)[C@H](CCCNC(=N)N)NC(=O)[C@H]([C@@H](C)CC)NC(=O)[C@H](Cc2ccccc2)NC(=O)[C@H](CCC(=O)O)NC(=O)[C@H](CC(C)C)NC(=O)CNC(=O)[C@@H](NC(=O)[C@H](CC(C)C)NC(=O)[C@H](CCCNC(=N)N)NC(=O)[C@@H](NC(=O)CNC(=O)[C@H](CCC(=O)O)NC(=O)[C@H](CCCCN)NC(=O)[C@H](C)NC(=O)[C@H](C)NC(=O)[C@@H](N)CCCNC(=N)N)C(C)C)CSSC[C@H](N)C(=O)N[C@@H]([C@@H](C)O)C(=O)N[C@@H](CC(=O)O)C(=O)NCC(=O)N[C@@H](C)C(=O)N[C@@H](CO)C(=O)N[C@@H](CCSC)C(=O)N[C@@H](CCCCN)C(=O)N[C@@H](CC(=O)O)C(=O)N[C@@H](CC(C)C)C(=O)N[C@@H](CO)C(=O)N[C@@H](C)C(=O)N[C@@H](CC(C)C)C(=O)N[C@H](C(=O)O)CSSC[C@@H](C(=O)N[C@@H](CCCNC(=N)N)C(=O)O)NC1=O [Analogue 20] (I: H-RAAKEGVRLCGLEFIRTVIFICR-OH / II: H-CTDGASMKDLSALC-OH; disulfide I:10-II:1, I:22-II:14; N-terminus assumed) as the compound, how does the Emax (RXFP3 [5]) read?
A: 19.9 ± 2.3%

Q: What about the Emax (RXFP4 [6]) of the same compound?
A: 8.1 ± 9.5%

Q: And the “RXFP4 Activity pEC50” value (RXFP4 [3])?
A: Weak partial agonist (4)

Q: How did the Ki (RXFP4 [1]; mean ± SEM, n in cell, SEM, read-out: RXFP4 Binding pKi (converted)) turn out when CC[C@H](C)[C@@H]1NC(=O)[C@H](Cc2ccccc2)NC(=O)[C@H](CCC(=O)O)NC(=O)[C@H](CCCNC(=N)N)NC(=O)CNC(=O)[C@@H](NC(=O)[C@H](CC(C)C)NC(=O)[C@H](CCCNC(=N)N)NC(=O)[C@@H](NC(=O)CNC(=O)[C@H](Cc2ccc(O)cc2)NC(=O)[C@@H]2CCCN2C(=O)[C@H](C)NC(=O)[C@H](C)NC(=O)[C@@H](N)CCCNC(=N)N)C(C)C)CSSC[C@@H]2NC(=O)[C@@H](NC(=O)[C@H](CO)NC(=O)[C@H](CO)NC(=O)[C@H](CO)NC(=O)[C@H](CC(C)C)NC(=O)CNC(=O)[C@H](C)NC(=O)[C@H](CC(C)C)NC(=O)[C@@H](NC(=O)[C@@H](N)CC(=O)O)C(C)C)CSSC[C@H](NC(=O)CNC(=O)[C@H](Cc3c[nH]c4ccccc34)NC(=O)[C@H](CCCCN)NC2=O)C(=O)N[C@@H](CO)C(=O)N[C@@H](CCCCN)C(=O)N[C@@H](CO)C(=O)N[C@@H](CCC(=O)O)C(=O)N[C@@H]([C@@H](C)CC)C(=O)N[C@@H](CO)C(=O)N[C@@H](CO)C(=O)N[C@@H](CC(C)C)C(=O)N[C@H](C(=O)O)CSSC[C@@H](C(=O)NCC(=O)NCC(=O)N[C@@H](CO)C(=O)N[C@@H](CCCNC(=N)N)C(=O)N[C@@H](Cc2c[nH]c3ccccc23)C(=O)O)NC(=O)[C@H]([C@@H](C)O)NC(=O)[C@H](Cc2ccccc2)NC(=O)[C@H]([C@@H](C)CC)NC(=O)[C@H](C(C)C)NC(=O)[C@H](C)NC(=O)[C@H](CCCNC(=N)N)NC1=O [Relaxin 3 (R3), reference compound] was run?
A: 0.00229 µM

Q: What about the EC50 (RXFP3 [2]) of the same compound?
A: 0.000832 µM

Q: What about the Ki (RXFP3 [4]; mean ± SEM, n in cell, SEM, read-out: RXFP3 Binding pKi (converted)) of the same compound?
A: 0.0229 µM
